In patent US6794402B2, “Bicyclic cyclohexylamines and their use as NMDA receptor antagonists” (Warner-Lambert Company, priority 2000, dated 2004):

Target: T1, [3H]ifenprodil binding site, rat forebrain membranes (Rattus norvegicus, UniProt P35439+Q00960)
T1 construct: membrane fraction was prepared from frozen adult rat forebrains; tissue Zivic-Miller Laboratories, Inc; host or cells: adult rat forebrain, washed buffy coat membrane fraction
Experiment: [3H]Ifenprodil binding assay
Conditions: 4 nM [3H]-ifenprodil, 2 hours at room temperature
Method: All buffers and reagents used in assay incubations or to dissolve drugs were prepared using water purified through a Milli-Q reverse osmosis system (Millipore Corp, Bedford, Mass.) and treated with UV emissions. Prior to use in the assays, buffers were further filtered through a sterile Corning filtration unit (Corning Glass Works, Corning, N.Y.) containing a 0.2-micron filter. Buffer used to rinse the membranes on the assay filters was prepared with purified water, but was not refiltered and was stored no longer than 5 days. Stock solutions of the drugs (usually 10 mM) were dissolved in 20 mM HEPES-KOH buffer pH 7.4 (assay buffer) with the addition of 1 to 5 μL of glacial AcOH, if needed to keep them in solution. For eliprodil the stock solution was buffered with the addition of 10% DMSO. All subsequent dilutions from stock were made in buffer.
An extensively washed buffy coat membrane fraction was prepared from frozen adult rat forebrains (Zivic-Miller Laboratories, Inc., Zelienople, Pa.) as described previously (Coughenour L. L., Cordon, J. J., J. Pharmacol. Exp. Ther., 1997;280:584-592) and stored at −80° C. On the day of the assay, pellets were resuspended in 35 mL of assay buffer at pH 7.4 using a Polytron setting 6. After incubation at 37° C. for 30 minutes in a shaking water bath, the homogenate was centrifuged 40,000×g for 10 minutes at 4° C. The pellets were resuspended in fresh buffer and centrifuged 3 more times before final suspension for use in the assay.
[^3H]Ifenprodil Binding. Triplicate incubations were carried out in a volume of 0.5 mL in 1.3 mL polypropylene tubes (Marsh Biomedical Products Inc., Rochester, N.Y.) for 2 hours at room temperature. Incubations contained test agents, membranes (100-200 μg protein) and 4 nM[^3H]-ifenprodil in 20 mM HEPES-KOH buffer, pH 7.4 (assay buffer). Assays were started by addition of the membranes. Bound radioligand was separated by filtration under reduced pressure using a Tomtec Mach II, 96-well cell harvester (Tomtec Inc., Orange, Colo.). Filtration was through Whatman GF/B glass fiber filters (Whatman Ltd, Maidstone, England), which had been soaked for at least 15 minutes in 0.3% polyethylenimine and allowed to air dry. The filters were rinsed with 3 mL of ice cold assay buffer within 6 seconds. Air was allowed to pass through the filters for an additional 10 seconds to remove residual moisture. The filter mat was supported on a cold (−20° C.) teflon support, and filters from individual wells were separated and placed in Mini Poly-Q vials (Beckman Instruments Inc., Fullerton, Calif.) and filled with 4 mL of scintillation cocktail (Beckman Ready Protein^+). Radioactivity retained on the filter was determined by liquid scintillation spectrophotometry. Nonspecific binding was defined as the binding in the presence of 1 mM ifenprodil. Specific binding was 90%.
Data analysis. Binding curves were statistically analyzed for a best one or two site competition fit using GraphPad Prism software (GraphPad Software Inc., San Diego, Calif.). The normalized data was fit by nonweighted nonlinear regression to either [formula]
Control data was entered as 100%, and no parameters were constrained. Inhibition curves were compared by ANOVA with post test comparisons of the logIC50 using Dunnett's multiple comparisons post test or Student's nonpaired, two-tailed t-test (GraphPad InStat software).

T1 sequence (Q00960 27-1482, other chains not shown): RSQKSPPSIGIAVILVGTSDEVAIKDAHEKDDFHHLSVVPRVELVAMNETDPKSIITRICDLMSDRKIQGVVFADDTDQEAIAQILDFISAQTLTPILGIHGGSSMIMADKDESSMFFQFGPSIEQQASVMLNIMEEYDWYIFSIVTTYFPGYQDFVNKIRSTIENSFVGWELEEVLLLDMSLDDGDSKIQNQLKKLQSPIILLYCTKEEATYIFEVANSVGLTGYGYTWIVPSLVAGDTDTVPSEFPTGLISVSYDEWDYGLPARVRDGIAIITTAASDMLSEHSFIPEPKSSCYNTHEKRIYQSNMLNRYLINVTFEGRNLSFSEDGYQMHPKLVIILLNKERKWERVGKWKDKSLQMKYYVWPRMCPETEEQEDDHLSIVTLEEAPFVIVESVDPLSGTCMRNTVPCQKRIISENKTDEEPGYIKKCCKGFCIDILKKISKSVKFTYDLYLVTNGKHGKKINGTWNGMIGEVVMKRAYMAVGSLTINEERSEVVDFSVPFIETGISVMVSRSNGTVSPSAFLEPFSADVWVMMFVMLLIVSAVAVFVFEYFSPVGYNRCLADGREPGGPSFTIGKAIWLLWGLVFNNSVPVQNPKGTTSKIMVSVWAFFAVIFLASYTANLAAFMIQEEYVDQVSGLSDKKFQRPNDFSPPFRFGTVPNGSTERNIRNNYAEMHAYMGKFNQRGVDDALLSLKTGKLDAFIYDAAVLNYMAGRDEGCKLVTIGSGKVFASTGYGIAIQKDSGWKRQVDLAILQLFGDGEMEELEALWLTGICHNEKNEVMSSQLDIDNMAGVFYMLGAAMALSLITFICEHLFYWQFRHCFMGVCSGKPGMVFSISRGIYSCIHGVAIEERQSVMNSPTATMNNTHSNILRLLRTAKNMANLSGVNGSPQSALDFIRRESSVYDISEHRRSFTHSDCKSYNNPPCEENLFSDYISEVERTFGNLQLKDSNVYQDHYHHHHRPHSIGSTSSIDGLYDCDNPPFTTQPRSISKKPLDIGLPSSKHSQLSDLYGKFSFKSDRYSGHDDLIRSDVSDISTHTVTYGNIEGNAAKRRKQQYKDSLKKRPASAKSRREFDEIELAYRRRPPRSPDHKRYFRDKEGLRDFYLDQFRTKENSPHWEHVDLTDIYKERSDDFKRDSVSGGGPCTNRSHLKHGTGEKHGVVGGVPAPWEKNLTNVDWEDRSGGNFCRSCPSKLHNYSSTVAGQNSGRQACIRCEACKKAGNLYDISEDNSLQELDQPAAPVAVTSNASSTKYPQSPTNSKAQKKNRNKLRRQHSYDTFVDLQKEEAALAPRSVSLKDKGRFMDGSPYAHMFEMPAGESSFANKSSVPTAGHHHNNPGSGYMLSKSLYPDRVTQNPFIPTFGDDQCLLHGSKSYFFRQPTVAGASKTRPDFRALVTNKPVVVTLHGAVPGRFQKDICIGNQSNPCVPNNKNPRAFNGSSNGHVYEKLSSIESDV

IC50 | Compound
0.98 µM | O=C(NCCNC1CCC(c2ccc3[nH]c(=O)oc3c2)CC1)c1ccccc1 (mixture of isomers) [Example 42b, N-{2-[4-(2-Oxo-2,3-dihydrobenzoxazol-6-yl)cyclohexylamino]ethyl}-benzamide]
0.056 µM | Cc1cc(F)ccc1CCCN(C)C1CCC(c2ccc3[nH]c(=O)oc3c2)CC1 (stereo in doubt) [Example 43b, 6-(trans-{4-[Methyl(4-fluoro-2-methylphenylpropyl)amino]cyclohexyl})-3H-benzoxazol-2-one]
0.021 µM | O=c1[nH]c2ccc([C@H]3CC[C@@H](NCCSc4ccccc4)CC3)cc2o1 [Example 5b, 6-[cis-4-(2-Phenylsulfanylethylamino)cyclohexyl]-3H-benzoxazol-2-one]
0.128 µM | O=c1[nH]c2ccc([C@H]3CC[C@H](NCCCc4ccc(C(F)(F)F)cc4)CC3)cc2o1 [Example 14, 6-{trans-4-[3-(4-Trifluoromethylphenyl)propylamino]cyclohexyl}-3H-benzoxazol-2-one]
0.185 µM | CN(CCCc1ccc(F)cc1)[C@H]1CC[C@@H](c2ccc3[nH]c(=O)oc3c2)CC1 [Example 19, 6-(cis-4-{[3-(4-Fluorophenyl)propyl]methylamino}cyclohexyl)-3H-benzoxazol-2-one]
0.014 µM | CN(CCCc1ccc(F)cc1F)[C@H]1CC[C@H](c2ccc3[nH]c(=O)oc3c2)CC1 [Example 24b, 6-(trans-4-{[3-(2,4-Difluorophenyl)propyl]methylamino}cyclohexyl)-3H-benzoxazol-2-one]
0.188 µM | CCN(CCCc1ccc(C(F)(F)F)cc1)[C@H]1CC[C@H](c2ccc3[nH]c(=O)oc3c2)CC1 [Example 26]
0.132 µM | CCN([C@H]1CC[C@H](c2ccc3[nH]c(=O)oc3c2)CC1)[C@H](C)CCc1ccccc1 [Example 27, 6-(trans-4-{Ethyl-[(R)-1-methyl-3-phenylpropyl]amino}cyclohexyl)-3H-benzoxazol-2-one]
0.184 µM | CCN([C@H]1CC[C@H](c2ccc3[nH]c(=O)oc3c2)CC1)[C@@H](C)CCc1ccccc1 [Example 28, 6-(trans-4-{Ethyl-[(S)-1-methyl-3-phenylpropyl]amino}cyclohexyl)-3H-benzoxazol-2-one]
0.018 µM | O=c1[nH]c2ccc([C@H]3CC[C@H](N(CCO)CCCc4ccc(F)cc4)CC3)cc2o1 [Example 29, 6-{trans-4-[[3-(4-Fluorophenyl)propyl]-(2-hydroxyethyl)amino]cyclohexyl}-3H-benzoxazol-2-one]
0.219 µM | O=c1[nH]c2ccc([C@H]3CC[C@H](N(CCCc4ccc(F)cc4)CC4CC4)CC3)cc2o1 [Example 30, 6-(trans-4-{Cyclopropylmethyl-[3-(4-fluorophenyl)propyl]amino}cyclohexyl)-3H-benzoxazol-2-one]
0.465 µM | O=c1[nH]c2ccc([C@H]3CC[C@H](N(CCCc4ccc(F)cc4)Cc4ccoc4)CC3)cc2o1 [Example 31, 6-(trans-4-{[3-(4-Fluorophenyl)propyl]furan-3-ylmethylamino}cyclohexyl)-3H-benzoxazol-2-one]
0.158 µM | C=CCN(CCCc1ccc(F)cc1)[C@H]1CC[C@H](c2ccc3[nH]c(=O)oc3c2)CC1 [Example 32, 6-(trans-4-{Allyl-[3-(4-fluorophenyl)propyl]amino}cyclohexyl)-3H-benzoxazol-2-one]
> 1 µM | CC(C)CN(CCCc1ccc(F)cc1)[C@H]1CC[C@H](c2ccc3[nH]c(=O)oc3c2)CC1 [Example 33, 6-(trans-4-{[3-(4-Fluorophenyl)propyl]isobutylamino}cyclohexyl)-3H-benzoxazol-2-one]
0.152 µM | NC(=O)CN(CCCc1ccc(F)cc1)[C@H]1CC[C@H](c2ccc3[nH]c(=O)oc3c2)CC1 [Example 34, 2-{[3-(4-Fluorophenyl)propyl]-[4-(2-oxo-2,3-dihydro-benzoxazol-6-yl)-cyclohexyl]amino}acetamide]
0.17 µM | NCCN(CCCc1ccc(F)cc1)[C@H]1CC[C@H](c2ccc3[nH]c(=O)oc3c2)CC1 [Example 35, 6-(trans-4-{(2-Aminoethyl)-[3-(4-fluorophenyl)propyl]amino}cyclohexyl)-3H-benzoxazol-2-one]

IC50 | Compound
> 1 µM | CCC[C@@H](CSc1ccc(F)cc1)N(CC)[C@H]1CC[C@H](c2ccc3[nH]c(=O)oc3c2)CC1 [Example 36b, (S)-6-{trans-4-[Ethyl(1-(4-fluorophenylsulfanyl)pentan-2-yl)amino]-cyclohexyl}-3H-benzoxazol-2-one]
0.007 µM | CN(CCCc1ccc(Cl)cc1)[C@H]1CC[C@H](c2ccc3[nH]c(=O)oc3c2)CC1 [Example 38b, 6-(trans-4-{[3-(4-Chlorophenyl)propyl]methylamino}cyclohexyl)-3H-benzoxazol-2-one]
0.037 µM | CN(CCCc1cc(F)cc(F)c1)[C@H]1CC[C@H](c2ccc3[nH]c(=O)oc3c2)CC1 [Example 39b, 6-(trans-{[3-(3,5-Difluorophenyl)propyl]methylamino}cyclohexyl)-3H-benzoxazol-2-one]
0.029 µM | CN(CCCc1ccc(F)c(F)c1)[C@H]1CC[C@H](c2ccc3[nH]c(=O)oc3c2)CC1 [Example 40b, 6-(trans-4-{[3-(3,4-Difluorophenyl)propyl]methylamino}cyclohexyl)-3H-benzoxazol-2-one]
0.068 µM | Cc1ccc(CCCN(C)[C@H]2CC[C@H](c3ccc4[nH]c(=O)oc4c3)CC2)c(C)c1 [Example 41b]
0.007 µM | CN(CCCc1ccc(F)cc1Cl)[C@H]1CC[C@H](c2ccc3[nH]c(=O)oc3c2)CC1 [Example 44b, 6-(trans-4-{[3-(2-Chloro-4-fluorophenyl)propyl]methylamino}cyclohexyl)-3H-benzoxazol-2-one]
0.007 µM | CN(CCCc1ccc(Cl)cc1F)[C@H]1CC[C@H](c2ccc3[nH]c(=O)oc3c2)CC1 [Example 45b, 6-(trans-4-{[3-(4-Chloro-2-fluorophenyl)propyl]methylamino}cyclohexyl)-3H-benzoxazol-2-one]
0.009 µM | CN(CCCc1ccccc1F)[C@H]1CC[C@H](c2ccc3[nH]c(=O)oc3c2)CC1 [Example 46b, 6-(trans-4-{[3-(2-Fluorophenyl)propyl]methylamino}cyclohexyl)-3H-benzoxazol-2-one]
0.015 µM | CN(CCCc1cccc(F)c1)[C@H]1CC[C@H](c2ccc3[nH]c(=O)oc3c2)CC1 [Example 47b, 6-(trans-4-{[3-(3-Fluorophenyl)propyl]methylamino}cyclohexyl)-3H-benzoxazol-2-one]
0.02 µM | Cc1c(F)cccc1CCCN(C)[C@H]1CC[C@H](c2ccc3[nH]c(=O)oc3c2)CC1 [Example 48b, 6-(trans-4-{[3-(3-Fluoro-2-methylphenyl)propyl]methylamino}cyclohexyl)-3H-benzoxazol-2-one]
0.022 µM | CN(CCCC1CCCCC1)[C@H]1CC[C@H](c2ccc3[nH]c(=O)oc3c2)CC1 [Example 49b, 6-{trans-4-[(3-Cyclohexylpropyl)methylamino]cyclohexyl}-3H-benzoxazol-2-one]
0.351 µM | CC(Cc1ccccc1)CN(C)[C@H]1CC[C@H](c2ccc3[nH]c(=O)oc3c2)CC1 (stereo partly drawn) [Example 50b, 6-(trans-{4-[Methyl(2-methyl-3-phenylpropyl)amino]cyclohexyl})-3H-benzoxazol-2-one]
0.55 µM | CN(CC#Cc1ccccc1)[C@H]1CC[C@H](c2ccc3[nH]c(=O)oc3c2)CC1 [Example 51b, 6-(trans-{4-[Methyl(3-phenyl-prop-2-ynyl)amino]cyclohexyl})-3H-benzoxazol-2-one]
0.003 µM | CN(CCCc1ccsc1)[C@H]1CC[C@H](c2ccc3[nH]c(=O)oc3c2)CC1 [Example 52b, 6-[trans-4-{[3-(3-Thiophen-3-yl)propyl]methylamino}cyclohexyl)-3H-benzoxazol-2-one]
0.002 µM | CC(C)c1ccc(CCCN(C)[C@H]2CC[C@H](c3ccc4[nH]c(=O)oc4c3)CC2)cc1 [Example 53, 6-(trans-4-{[3-(4-Isopropylphenyl)propyl]methylamino}cyclohexyl)-3H-benzoxazol-2-one]
